System: histamine-induced nasal congestion model
Assay: Histamine-induced nasal congestion model in dogs, oral administration
Type: in vivo, Beagle dogs
Description: A histamine-induced nasal congestion model in dogs was performed according to the standard procedure [Tiniakov R. L., Tiniakova O. P., McLeod R. L., Hey J. A., Yeates D. B. Canine model of nasal congestion and allergic rhinitis//J Appl Physiol. 2003. V.94(5). P.1821-1828]. Beagle dogs were injected in the nasal cavity with a 5% histamine solution in a volume of 250 μl/nostril. The volume of the nasal cavity of the right and left nostrils was measured using a rhinometer before and 5, 10, 15, 20, 30, 40, 50 and 60 minutes after administration of histamine. Three experiments were performed, in which Compound I was administered orally once at different times: 1) 30 minutes before administration of histamine; 2) 1 hour before administration of histamine; and 3) 6 hours before administration of histamine, and one experiment was performed, in which Compound I was administered orally once daily for 14 days, the last administration was carried out 1 hour before administration of histamine.

[1] = oral 6 hours before histamine, 0.54 mg/kg, 40 minutes after histamine
[2] = oral 6 hours before histamine, 0.54 mg/kg, 50 minutes after histamine
[3] = oral 6 hours before histamine, 0.54 mg/kg, 60 minutes after histamine
[4] = oral 6 hours before histamine, 0.54 mg/kg, before histamine administration
[5] = oral for 14 days, 0.13 mg/kg, 5 minutes after histamine
[6] = oral for 14 days, 0.13 mg/kg, 10 minutes after histamine
[7] = oral for 14 days, 0.13 mg/kg, 15 minutes after histamine
[8] = oral for 14 days, 0.13 mg/kg, 20 minutes after histamine
[9] = oral for 14 days, 0.13 mg/kg, 30 minutes after histamine
[10] = oral for 14 days, 0.13 mg/kg, 40 minutes after histamine
[11] = oral for 14 days, 0.13 mg/kg, before histamine administration
[12] = oral for 14 days, 0.27 mg/kg, 5 minutes after histamine
[13] = oral for 14 days, 0.27 mg/kg, 10 minutes after histamine
[14] = oral for 14 days, 0.27 mg/kg, 15 minutes after histamine
[15] = oral for 14 days, 0.27 mg/kg, 20 minutes after histamine
[16] = oral for 14 days, 0.27 mg/kg, 30 minutes after histamine
[17] = oral for 14 days, 0.27 mg/kg, 40 minutes after histamine
[18] = oral for 14 days, 0.27 mg/kg, before histamine administration
[19] = oral for 14 days, 0.54 mg/kg, 5 minutes after histamine
[20] = oral for 14 days, 0.54 mg/kg, 10 minutes after histamine
[21] = oral for 14 days, 0.54 mg/kg, 15 minutes after histamine
[22] = oral for 14 days, 0.54 mg/kg, 20 minutes after histamine
[23] = oral for 14 days, 0.54 mg/kg, before histamine administration
[24] = oral once 30 minutes before histamine, 0.005 mg/kg, 5 minutes after histamine
[25] = oral once 30 minutes before histamine, 0.005 mg/kg, 10 minutes after histamine
[26] = oral once 30 minutes before histamine, 0.005 mg/kg, 15 minutes after histamine
[27] = oral once 30 minutes before histamine, 0.005 mg/kg, 20 minutes after histamine
[28] = oral once 30 minutes before histamine, 0.005 mg/kg, 30 minutes after histamine
[29] = oral once 30 minutes before histamine, 0.005 mg/kg, 40 minutes after histamine
[30] = oral once 30 minutes before histamine, 0.005 mg/kg, 50 minutes after histamine
[31] = oral once 30 minutes before histamine, 0.005 mg/kg, 60 minutes after histamine
[32] = oral once 30 minutes before histamine, 0.005 mg/kg, before histamine administration
[33] = oral once 30 minutes before histamine, 0.05 mg/kg, 5 minutes after histamine
[34] = oral once 30 minutes before histamine, 0.05 mg/kg, 10 minutes after histamine
[35] = oral once 30 minutes before histamine, 0.05 mg/kg, 15 minutes after histamine
[36] = oral once 30 minutes before histamine, 0.05 mg/kg, 20 minutes after histamine
[37] = oral once 30 minutes before histamine, 0.05 mg/kg, 30 minutes after histamine
[38] = oral once 30 minutes before histamine, 0.05 mg/kg, 40 minutes after histamine
[39] = oral once 30 minutes before histamine, 0.05 mg/kg, 50 minutes after histamine
[40] = oral once 30 minutes before histamine, 0.05 mg/kg, 60 minutes after histamine
[41] = oral once 30 minutes before histamine, 0.05 mg/kg, before histamine administration
[42] = oral once 30 minutes before histamine, 0.54 mg/kg, 5 minutes after histamine
[43] = oral once 30 minutes before histamine, 0.54 mg/kg, 10 minutes after histamine
[44] = oral once 30 minutes before histamine, 0.54 mg/kg, 15 minutes after histamine
[45] = oral once 30 minutes before histamine, 0.54 mg/kg, 20 minutes after histamine
[46] = oral once 30 minutes before histamine, 0.54 mg/kg, 30 minutes after histamine
[47] = oral once 30 minutes before histamine, 0.54 mg/kg, 40 minutes after histamine
[48] = oral once 30 minutes before histamine, 0.54 mg/kg, 50 minutes after histamine
[49] = oral once 30 minutes before histamine, 0.54 mg/kg, 60 minutes after histamine
[50] = oral once 30 minutes before histamine, 0.54 mg/kg, before histamine administration

O=C(CC(=O)NCCc1cnc[nH]1)NCCc1cnc[nH]1 [Compound I, N,N′-bis(2-(1H-imidazol-5-yl)ethyl)malonamide]
Volume of the nasal cavity, left nostril [1]: 3.5 ± 0.1$ cm^3
Volume of the nasal cavity, right nostril [1]: 3.5 ± 0.1$ cm^3
Volume of the nasal cavity, left nostril [2]: 2.9 ± 0.1$ cm^3
Volume of the nasal cavity, right nostril [2]: 2.9 ± 0.2$ cm^3
Volume of the nasal cavity, left nostril [3]: 2.9 ± 0.1$ cm^3
Volume of the nasal cavity, right nostril [3]: 3.0 ± 0.1$ cm^3
Volume of the nasal cavity, left nostril [4]: 4.1 ± 0.2 cm^3
Volume of the nasal cavity, right nostril [4]: 4.1 ± 0.2 cm^3
Volume of the nasal cavity, left nostril [5]: 2.7 ± 0.2$ cm^3
Volume of the nasal cavity, right nostril [5]: 2.7 ± 0.2$ cm^3
Volume of the nasal cavity, left nostril [6]: 3.2 ± 0.2*$ cm^3
Volume of the nasal cavity, right nostril [6]: 3.3 ± 0.2*$ cm^3
Volume of the nasal cavity, left nostril [7]: 2.5 ± 0.2*$ cm^3
Volume of the nasal cavity, right nostril [7]: 2.5 ± 0.1*$ cm^3
Volume of the nasal cavity, left nostril [8]: 2.4 ± 0.2*$ cm^3
Volume of the nasal cavity, right nostril [8]: 2.4 ± 0.2*$ cm^3
Volume of the nasal cavity, left nostril [9]: 3.2 ± 0.2*$ cm^3
Volume of the nasal cavity, right nostril [9]: 3.2 ± 0.2*$ cm^3
Volume of the nasal cavity, left nostril [10]: 3.6 ± 0.2*$ cm^3
Volume of the nasal cavity, right nostril [10]: 3.6 ± 0.2$ cm^3
Volume of the nasal cavity, left nostril [11]: 4.5 ± 0.1 cm^3
Volume of the nasal cavity, right nostril [11]: 4.5 ± 0.1 cm^3
Volume of the nasal cavity, left nostril [12]: 2.8 ± 0.2$ cm^3
Volume of the nasal cavity, right nostril [12]: 2.7 ± 0.2$ cm^3
Volume of the nasal cavity, left nostril [13]: 3.6 ± 0.2*$ cm^3
Volume of the nasal cavity, right nostril [13]: 3.6 ± 0.2*$ cm^3
Volume of the nasal cavity, left nostril [14]: 2.8 ± 0.3*$ cm^3
Volume of the nasal cavity, right nostril [14]: 2.8 ± 0.2*$ cm^3
Volume of the nasal cavity, left nostril [15]: 2.7 ± 0.1*$ cm^3
Volume of the nasal cavity, right nostril [15]: 2.7 ± 0.2*$ cm^3
Volume of the nasal cavity, left nostril [16]: 3.3 ± 0.2*$ cm^3
Volume of the nasal cavity, right nostril [16]: 3.3 ± 0.1*$ cm^3
Volume of the nasal cavity, left nostril [17]: 3.8 ± 0.2*$ cm^3
Volume of the nasal cavity, right nostril [17]: 3.8 ± 0.2*$ cm^3
Volume of the nasal cavity, left nostril [18]: 4.5 ± 0.2 cm^3
Volume of the nasal cavity, right nostril [18]: 4.5 ± 0.1 cm^3
Volume of the nasal cavity, left nostril [19]: 3.1 ± 0.3$ cm^3
Volume of the nasal cavity, right nostril [19]: 2.7 ± 0.2$ cm^3
Volume of the nasal cavity, left nostril [20]: 3.4 ± 0.2*$ cm^3
Volume of the nasal cavity, right nostril [20]: 3.4 ± 0.1*$ cm^3
Volume of the nasal cavity, left nostril [21]: 2.6 ± 0.1*$ cm^3
Volume of the nasal cavity, right nostril [21]: 2.6 ± 0.1*$ cm^3
Volume of the nasal cavity, left nostril [22]: 2.5 ± 0.2*$ cm^3
Volume of the nasal cavity, right nostril [22]: 2.5 ± 0.2*$ cm^3
Volume of the nasal cavity, left nostril [23]: 4.4 ± 0.1 cm^3
Volume of the nasal cavity, right nostril [23]: 4.5 ± 0.1 cm^3
Volume of the nasal cavity, left nostril [24]: 3.5 ± 0.2$ cm^3
Volume of the nasal cavity, right nostril [24]: 3.4 ± 0.1$ cm^3
Volume of the nasal cavity, left nostril [25]: 2.6 ± 0.2$ cm^3
Volume of the nasal cavity, right nostril [25]: 2.5 ± 0.2$ cm^3
Volume of the nasal cavity, left nostril [26]: 2.2 ± 0.2$^ cm^3
Volume of the nasal cavity, right nostril [26]: 2.1 ± 0.2$^ cm^3
Volume of the nasal cavity, left nostril [27]: 1.9 ± 0.3 cm^3
Volume of the nasal cavity, right nostril [27]: 2.0 ± 0.2$^ cm^3
Volume of the nasal cavity, left nostril [28]: 2.5 ± 0.1&$ cm^3
Volume of the nasal cavity, right nostril [28]: 2.8 ± 0.2&$ cm^3
Volume of the nasal cavity, left nostril [29]: 3.9 ± 0.1& cm^3
Volume of the nasal cavity, right nostril [29]: 3.8 ± 0.2& cm^3
Volume of the nasal cavity, left nostril [30]: 3.9 ± 0.1& cm^3
Volume of the nasal cavity, right nostril [30]: 4.0 ± 0.2& cm^3
Volume of the nasal cavity, left nostril [31]: 4.0 ± 0.1 cm^3
Volume of the nasal cavity, right nostril [31]: 3.5 ± 0.1$ cm^3
Volume of the nasal cavity, left nostril [32]: 4.3 ± 0.3 cm^3
Volume of the nasal cavity, right nostril [32]: 4.6 ± 0.3 cm^3
Volume of the nasal cavity, left nostril [33]: 3.4 ± 0.1$ cm^3
Volume of the nasal cavity, right nostril [33]: 3.3 ± 0.2$ cm^3
Volume of the nasal cavity, left nostril [34]: 2.5 ± 0.1$ cm^3
Volume of the nasal cavity, right nostril [34]: 2.4 ± 0.2$ cm^3
Volume of the nasal cavity, left nostril [35]: 2.8 ± 0.1&$ cm^3
Volume of the nasal cavity, right nostril [35]: 2.6 ± 0.2&$ cm^3
Volume of the nasal cavity, left nostril [36]: 3.3 ± 0.1&$ cm^3
Volume of the nasal cavity, right nostril [36]: 3.3 ± 0.3&$ cm^3
Volume of the nasal cavity, left nostril [37]: 4.1 ± 0.1& cm^3
Volume of the nasal cavity, right nostril [37]: 3.8 ± 0.1& cm^3
Volume of the nasal cavity, left nostril [38]: 4.2 ± 0.3& cm^3
Volume of the nasal cavity, right nostril [38]: 4.2 ± 0.2& cm^3
Volume of the nasal cavity, left nostril [39]: 4.2 ± 0.1& cm^3
Volume of the nasal cavity, right nostril [39]: 4.5 ± 0.1& cm^3
Volume of the nasal cavity, left nostril [40]: 4.3 ± 0.1 cm^3
Volume of the nasal cavity, right nostril [40]: 4.5 ± 0.3 cm^3
Volume of the nasal cavity, left nostril [41]: 4.3 ± 0.2 cm^3
Volume of the nasal cavity, right nostril [41]: 4.2 ± 0.2 cm^3
Volume of the nasal cavity, left nostril [42]: 2.9 ± 0.1$ cm^3
Volume of the nasal cavity, right nostril [42]: 3.0 ± 0.2$ cm^3
Volume of the nasal cavity, left nostril [43]: 2.6 ± 0.1$ cm^3
Volume of the nasal cavity, right nostril [43]: 2.5 ± 0.1$ cm^3
Volume of the nasal cavity, left nostril [44]: 3.7 ± 0.3&$ cm^3
Volume of the nasal cavity, right nostril [44]: 3.8 ± 0.1&$ cm^3
Volume of the nasal cavity, left nostril [45]: 3.8 ± 0.2& cm^3
Volume of the nasal cavity, right nostril [45]: 3.7 ± 0.1&$ cm^3
Volume of the nasal cavity, left nostril [46]: 3.8 ± 0.1&$ cm^3
Volume of the nasal cavity, right nostril [46]: 3.8 ± 0.2&$ cm^3
Volume of the nasal cavity, left nostril [47]: 4.2 ± 0.3& cm^3
Volume of the nasal cavity, right nostril [47]: 4.2 ± 0.3& cm^3
Volume of the nasal cavity, left nostril [48]: 3.9 ± 0.2$ cm^3
Volume of the nasal cavity, right nostril [48]: 4.0 ± 0.3^ cm^3
Volume of the nasal cavity, left nostril [49]: 4.0 ± 0.1$ cm^3
Volume of the nasal cavity, right nostril [49]: 4.2 ± 0.3 cm^3
Volume of the nasal cavity, left nostril [50]: 4.5 ± 0.1 cm^3
Volume of the nasal cavity, right nostril [50]: 4.5 ± 0.3 cm^3
Tolerance (oral once daily for 14 days, dogs): not generated
duration of the effect (single oral administration, dogs): at least 6 hours

Source: patent US11571411B2, “Use of a bisamide derivative of malonic acid for treating allergic and other diseases in humans and animals” (PHARMENTERPRISES ALLERGY LLC, priority 2018, dated 2023)
